Measurements reported in ChEMBL document CHEMBL4507280 (2021).

Columns and labels:
[1] = target: Atypical kinase COQ8B, mitochondrial (Homo sapiens) (UniProt Q96D53); conditions: Compound concentration 1000.0 nM
[2] = target: RAC-beta serine/threonine-protein kinase (Homo sapiens) (UniProt P31751); conditions: Compound concentration 1000.0 nM
[3] = target: Mitogen-activated protein kinase kinase kinase 5 (Homo sapiens) (UniProt Q99683); conditions: Compound concentration 1000.0 nM
[4] = target: BMP-2-inducible protein kinase (Homo sapiens) (UniProt Q9NSY1); conditions: Compound concentration 1000.0 nM
[5] = target: Tyrosine-protein kinase Blk (Homo sapiens) (UniProt P51451); conditions: Compound concentration 1000.0 nM
[6] = target: Tyrosine-protein kinase BTK (Homo sapiens) (UniProt Q06187); conditions: Compound concentration 1000.0 nM
Tyrosine-protein kinase BTK (Homo sapiens), sequence (Q06187 whole entry): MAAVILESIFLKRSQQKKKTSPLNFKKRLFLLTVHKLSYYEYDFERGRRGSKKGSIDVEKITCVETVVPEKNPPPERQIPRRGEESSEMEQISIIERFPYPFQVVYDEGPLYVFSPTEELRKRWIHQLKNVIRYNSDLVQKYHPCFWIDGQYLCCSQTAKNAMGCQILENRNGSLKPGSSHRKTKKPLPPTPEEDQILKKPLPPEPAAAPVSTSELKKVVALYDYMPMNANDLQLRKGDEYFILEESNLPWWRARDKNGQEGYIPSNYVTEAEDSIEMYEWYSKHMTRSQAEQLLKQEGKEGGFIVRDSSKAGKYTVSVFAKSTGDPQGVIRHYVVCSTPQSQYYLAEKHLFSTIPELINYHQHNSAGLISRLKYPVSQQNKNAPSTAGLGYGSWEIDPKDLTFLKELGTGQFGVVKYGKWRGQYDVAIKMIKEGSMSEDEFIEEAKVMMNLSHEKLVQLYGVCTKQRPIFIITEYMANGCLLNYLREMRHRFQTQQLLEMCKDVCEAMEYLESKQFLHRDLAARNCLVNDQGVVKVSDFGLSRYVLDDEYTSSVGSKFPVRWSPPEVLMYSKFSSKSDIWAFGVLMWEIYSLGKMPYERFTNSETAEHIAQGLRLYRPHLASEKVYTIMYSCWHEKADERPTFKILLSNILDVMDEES

[7] = target: Dual specificity protein kinase CLK4 (Homo sapiens) (UniProt Q9HAZ1); conditions: Compound concentration 1000.0 nM
[8] = target: Death-associated protein kinase 3 (Homo sapiens) (UniProt O43293); conditions: Compound concentration 1000.0 nM
[9] = target: Dual specificity tyrosine-phosphorylation-regulated kinase 1B (Homo sapiens) (UniProt Q9Y463); conditions: Compound concentration 1000.0 nM
[10] = target: Eukaryotic translation initiation factor 2-alpha kinase 1 (Homo sapiens) (UniProt Q9BQI3); conditions: Compound concentration 1000.0 nM
[11] = target: Ephrin type-A receptor 2 (Homo sapiens) (UniProt P29317); conditions: Compound concentration 1000.0 nM
[12] = target: Ephrin type-A receptor 5 (Homo sapiens) (UniProt P54756); conditions: Compound concentration 1000.0 nM
Ephrin type-A receptor 5 (Homo sapiens), sequence (P54756 whole entry): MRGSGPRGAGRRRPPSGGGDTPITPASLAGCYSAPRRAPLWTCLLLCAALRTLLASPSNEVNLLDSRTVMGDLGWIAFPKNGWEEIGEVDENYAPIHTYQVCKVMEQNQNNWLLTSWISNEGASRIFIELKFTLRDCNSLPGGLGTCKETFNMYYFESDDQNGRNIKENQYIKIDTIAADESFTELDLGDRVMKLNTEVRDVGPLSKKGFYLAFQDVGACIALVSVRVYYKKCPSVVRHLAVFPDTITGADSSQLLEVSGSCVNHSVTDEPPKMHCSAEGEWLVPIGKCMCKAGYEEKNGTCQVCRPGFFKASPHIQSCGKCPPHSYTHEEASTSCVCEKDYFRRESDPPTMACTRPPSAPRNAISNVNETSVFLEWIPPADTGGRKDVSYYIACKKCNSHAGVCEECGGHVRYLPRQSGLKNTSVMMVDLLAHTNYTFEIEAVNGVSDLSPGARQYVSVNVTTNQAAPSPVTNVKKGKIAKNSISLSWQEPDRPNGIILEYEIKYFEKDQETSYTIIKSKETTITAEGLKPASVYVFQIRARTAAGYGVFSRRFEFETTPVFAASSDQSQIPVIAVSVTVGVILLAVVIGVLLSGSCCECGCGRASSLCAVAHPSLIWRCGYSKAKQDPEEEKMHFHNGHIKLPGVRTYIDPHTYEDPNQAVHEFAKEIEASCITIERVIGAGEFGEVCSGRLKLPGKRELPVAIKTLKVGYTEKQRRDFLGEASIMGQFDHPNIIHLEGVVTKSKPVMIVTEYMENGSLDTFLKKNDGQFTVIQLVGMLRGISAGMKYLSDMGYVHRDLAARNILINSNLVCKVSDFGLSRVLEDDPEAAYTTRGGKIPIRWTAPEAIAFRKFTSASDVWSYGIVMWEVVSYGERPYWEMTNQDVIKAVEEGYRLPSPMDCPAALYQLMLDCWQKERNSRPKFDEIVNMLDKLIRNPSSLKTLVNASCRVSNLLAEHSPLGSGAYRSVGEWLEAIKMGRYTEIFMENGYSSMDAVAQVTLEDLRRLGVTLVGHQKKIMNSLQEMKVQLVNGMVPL

[13] = target: Ephrin type-A receptor 8 (Homo sapiens) (UniProt P29322); conditions: Compound concentration 1000.0 nM
[14] = target: Ephrin type-B receptor 2 (Homo sapiens) (UniProt P29323); conditions: Compound concentration 1000.0 nM
[15] = target: Ephrin type-B receptor 4 (Homo sapiens) (UniProt P54760); conditions: Compound concentration 1000.0 nM
[16] = test system: Receptor-type tyrosine-protein kinase FLT3 (Homo sapiens), P36888 [UNDEFINED MUTATION]; conditions: Compound concentration 1000.0 nM
[17] = target: Inhibitor of nuclear factor kappa-B kinase subunit beta (Homo sapiens) (UniProt O14920); conditions: Compound concentration 1000.0 nM
[18] = target: Tyrosine-protein kinase Lck (Homo sapiens) (UniProt P06239); conditions: Compound concentration 1000.0 nM
[19] = target: Phosphorylase b kinase gamma catalytic chain, skeletal muscle/heart isoform (Homo sapiens) (UniProt Q16816); conditions: Compound concentration 1000.0 nM
[20] = target: Phosphatidylinositol 4-phosphate 5-kinase type-1 alpha (Homo sapiens) (UniProt Q99755); conditions: Compound concentration 1000.0 nM
[21] = target: Serine/threonine-protein kinase RIO3 (Homo sapiens) (UniProt O14730); conditions: Compound concentration 1000.0 nM
[22] = target: Ribosomal protein S6 kinase alpha-5 (Homo sapiens) (UniProt O75582); conditions: Compound concentration 1000.0 nM
Ribosomal protein S6 kinase alpha-5 (Homo sapiens), sequence (O75582 whole entry, looked up): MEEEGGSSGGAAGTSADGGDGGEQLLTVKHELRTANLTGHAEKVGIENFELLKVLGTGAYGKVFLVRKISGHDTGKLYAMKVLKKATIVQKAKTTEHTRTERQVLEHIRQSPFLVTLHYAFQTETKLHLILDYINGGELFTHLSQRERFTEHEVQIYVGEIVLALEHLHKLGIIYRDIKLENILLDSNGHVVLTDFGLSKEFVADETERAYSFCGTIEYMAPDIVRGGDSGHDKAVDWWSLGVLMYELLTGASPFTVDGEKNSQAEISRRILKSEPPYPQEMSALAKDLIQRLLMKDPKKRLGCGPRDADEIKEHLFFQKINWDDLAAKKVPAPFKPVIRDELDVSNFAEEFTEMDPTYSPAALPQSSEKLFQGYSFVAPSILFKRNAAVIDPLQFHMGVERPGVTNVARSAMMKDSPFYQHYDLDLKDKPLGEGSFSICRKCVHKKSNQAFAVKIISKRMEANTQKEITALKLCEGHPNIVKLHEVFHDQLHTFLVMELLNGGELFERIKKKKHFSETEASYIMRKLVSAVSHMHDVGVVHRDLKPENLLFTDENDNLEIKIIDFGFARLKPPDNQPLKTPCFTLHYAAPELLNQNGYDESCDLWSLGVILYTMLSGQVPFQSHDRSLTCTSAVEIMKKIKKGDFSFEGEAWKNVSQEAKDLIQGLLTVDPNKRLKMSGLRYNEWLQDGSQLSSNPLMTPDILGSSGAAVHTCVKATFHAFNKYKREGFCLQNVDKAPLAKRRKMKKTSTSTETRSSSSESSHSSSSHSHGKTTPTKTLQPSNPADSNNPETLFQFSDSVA

[23] = target: Ribosomal protein S6 kinase alpha-6 (Homo sapiens) (UniProt Q9UK32); conditions: Compound concentration 1000.0 nM
[24] = target: Serine/threonine-protein kinase Sgk1 (Homo sapiens) (UniProt O00141); conditions: Compound concentration 1000.0 nM
[25] = target: Serine/threonine-protein kinase Sgk3 (Homo sapiens) (UniProt Q96BR1); conditions: Compound concentration 1000.0 nM
[26] = target: TGF-beta receptor type-2 (Homo sapiens) (UniProt P37173); conditions: Compound concentration 1000.0 nM
[27] = target: Serine/threonine-protein kinase ULK1 (Homo sapiens) (UniProt O75385); conditions: Compound concentration 1000.0 nM
[28] = target: 5-hydroxytryptamine receptor 1A (Homo sapiens) (UniProt P08908); conditions: Compound concentration 10.0 uM
[29] = target: 5-hydroxytryptamine receptor 1D (Homo sapiens) (UniProt P28221); conditions: Compound concentration 10.0 uM
5-hydroxytryptamine receptor 1D (Homo sapiens), sequence (P28221 whole entry): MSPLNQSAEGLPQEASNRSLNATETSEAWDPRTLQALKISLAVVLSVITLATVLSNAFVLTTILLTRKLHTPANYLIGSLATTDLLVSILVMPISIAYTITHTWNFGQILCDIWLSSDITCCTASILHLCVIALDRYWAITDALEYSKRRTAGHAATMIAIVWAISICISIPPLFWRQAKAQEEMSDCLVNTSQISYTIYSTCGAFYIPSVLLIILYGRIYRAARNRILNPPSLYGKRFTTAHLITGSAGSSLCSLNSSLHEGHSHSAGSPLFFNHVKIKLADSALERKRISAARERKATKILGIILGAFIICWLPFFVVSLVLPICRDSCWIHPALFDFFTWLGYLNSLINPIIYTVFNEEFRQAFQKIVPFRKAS

[30] = target: 5-hydroxytryptamine receptor 1E (Homo sapiens) (UniProt P28566); conditions: Compound concentration 10.0 uM
[31] = target: 5-hydroxytryptamine receptor 3A (Homo sapiens) (UniProt P46098); conditions: Compound concentration 10.0 uM
5-hydroxytryptamine receptor 3A (Homo sapiens), sequence (P46098 whole entry): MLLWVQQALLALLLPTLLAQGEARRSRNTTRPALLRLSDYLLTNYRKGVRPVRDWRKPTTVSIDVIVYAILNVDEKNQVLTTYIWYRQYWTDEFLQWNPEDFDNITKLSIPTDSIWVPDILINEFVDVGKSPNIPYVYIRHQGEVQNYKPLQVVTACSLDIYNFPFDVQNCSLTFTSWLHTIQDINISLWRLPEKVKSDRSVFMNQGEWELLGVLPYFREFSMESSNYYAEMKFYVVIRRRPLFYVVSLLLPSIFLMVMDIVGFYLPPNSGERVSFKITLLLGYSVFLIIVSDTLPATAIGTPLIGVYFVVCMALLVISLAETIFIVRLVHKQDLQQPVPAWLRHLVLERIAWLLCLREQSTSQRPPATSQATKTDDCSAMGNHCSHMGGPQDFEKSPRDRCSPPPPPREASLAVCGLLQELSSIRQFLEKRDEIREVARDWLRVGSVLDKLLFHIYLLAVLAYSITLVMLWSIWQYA

[32] = target: Sodium-dependent serotonin transporter (Homo sapiens) (UniProt P31645); conditions: Compound concentration 10.0 uM
Sodium-dependent serotonin transporter (Homo sapiens), sequence (P31645 whole entry, looked up): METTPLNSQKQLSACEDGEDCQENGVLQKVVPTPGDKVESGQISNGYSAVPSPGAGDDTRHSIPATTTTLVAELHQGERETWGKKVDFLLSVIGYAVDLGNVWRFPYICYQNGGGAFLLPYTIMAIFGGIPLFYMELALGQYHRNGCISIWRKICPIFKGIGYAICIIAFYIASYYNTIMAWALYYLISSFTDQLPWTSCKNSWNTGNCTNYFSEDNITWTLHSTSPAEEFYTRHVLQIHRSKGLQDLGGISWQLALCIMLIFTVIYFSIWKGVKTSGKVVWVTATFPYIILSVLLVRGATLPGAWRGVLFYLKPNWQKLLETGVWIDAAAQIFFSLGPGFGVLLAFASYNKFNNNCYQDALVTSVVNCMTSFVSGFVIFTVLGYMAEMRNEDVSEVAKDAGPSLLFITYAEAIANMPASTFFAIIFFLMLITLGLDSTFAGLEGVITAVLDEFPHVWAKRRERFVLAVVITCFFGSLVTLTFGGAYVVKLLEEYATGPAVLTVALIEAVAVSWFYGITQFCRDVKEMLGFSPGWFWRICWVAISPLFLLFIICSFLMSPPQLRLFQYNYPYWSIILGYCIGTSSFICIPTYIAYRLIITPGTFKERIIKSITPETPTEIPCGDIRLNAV

[33] = target: Sodium-dependent noradrenaline transporter (Homo sapiens) (UniProt P23975); conditions: Compound concentration 10.0 uM
Sodium-dependent noradrenaline transporter (Homo sapiens), sequence (P23975 whole entry): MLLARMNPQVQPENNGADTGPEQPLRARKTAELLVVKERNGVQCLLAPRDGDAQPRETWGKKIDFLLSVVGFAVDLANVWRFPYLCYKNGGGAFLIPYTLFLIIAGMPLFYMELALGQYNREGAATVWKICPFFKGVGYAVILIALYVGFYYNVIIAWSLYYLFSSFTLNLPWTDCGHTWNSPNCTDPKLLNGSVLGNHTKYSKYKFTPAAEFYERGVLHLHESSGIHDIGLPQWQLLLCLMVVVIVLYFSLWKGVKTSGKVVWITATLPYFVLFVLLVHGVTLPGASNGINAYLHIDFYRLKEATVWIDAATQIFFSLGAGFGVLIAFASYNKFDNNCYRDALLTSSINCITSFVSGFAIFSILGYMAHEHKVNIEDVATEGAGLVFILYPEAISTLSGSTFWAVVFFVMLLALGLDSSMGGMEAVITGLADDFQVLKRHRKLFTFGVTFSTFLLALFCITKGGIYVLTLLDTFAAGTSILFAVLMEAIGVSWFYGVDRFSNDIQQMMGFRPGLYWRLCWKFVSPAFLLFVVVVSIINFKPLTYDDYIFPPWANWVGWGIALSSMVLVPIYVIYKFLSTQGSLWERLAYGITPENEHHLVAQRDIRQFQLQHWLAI

[34] = target: Sodium-dependent dopamine transporter (Homo sapiens) (UniProt Q01959); conditions: Compound concentration 10.0 uM
[35] = target: Mu-type opioid receptor (Homo sapiens) (UniProt P35372); conditions: Compound concentration 10.0 uM
[36] = target: GABA-A receptor; anion channel (Rattus norvegicus) (UniProt O09028+P15431+P18506+P18508+P19969+P20236+P23574+P23576+P28471+P28473+P30191+P62813+P63079+P63138+Q91ZM7+Q9ES14); conditions: Compound concentration 10.0 uM
[37] = target: T1, Muscarinic acetylcholine receptor M2 (Homo sapiens) (UniProt P08172); conditions: Compound concentration 10.0 uM
T1 sequence (whole entry): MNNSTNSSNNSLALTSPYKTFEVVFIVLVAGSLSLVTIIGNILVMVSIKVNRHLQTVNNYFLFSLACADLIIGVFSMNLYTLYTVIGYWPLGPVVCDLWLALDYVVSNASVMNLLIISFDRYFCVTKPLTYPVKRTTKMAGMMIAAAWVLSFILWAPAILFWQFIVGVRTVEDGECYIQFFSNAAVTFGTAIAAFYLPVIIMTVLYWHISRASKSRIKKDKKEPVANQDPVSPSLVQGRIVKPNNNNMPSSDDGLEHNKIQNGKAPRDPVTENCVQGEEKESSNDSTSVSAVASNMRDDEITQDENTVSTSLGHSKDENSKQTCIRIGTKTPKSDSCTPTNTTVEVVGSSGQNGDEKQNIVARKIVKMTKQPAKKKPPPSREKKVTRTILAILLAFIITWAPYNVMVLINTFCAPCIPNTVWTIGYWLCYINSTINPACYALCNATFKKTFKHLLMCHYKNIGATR

[38] = target: Beta-3 adrenergic receptor (Homo sapiens) (UniProt P13945); conditions: Compound concentration 10.0 uM
Beta-3 adrenergic receptor (Homo sapiens), sequence (P13945 whole entry, looked up): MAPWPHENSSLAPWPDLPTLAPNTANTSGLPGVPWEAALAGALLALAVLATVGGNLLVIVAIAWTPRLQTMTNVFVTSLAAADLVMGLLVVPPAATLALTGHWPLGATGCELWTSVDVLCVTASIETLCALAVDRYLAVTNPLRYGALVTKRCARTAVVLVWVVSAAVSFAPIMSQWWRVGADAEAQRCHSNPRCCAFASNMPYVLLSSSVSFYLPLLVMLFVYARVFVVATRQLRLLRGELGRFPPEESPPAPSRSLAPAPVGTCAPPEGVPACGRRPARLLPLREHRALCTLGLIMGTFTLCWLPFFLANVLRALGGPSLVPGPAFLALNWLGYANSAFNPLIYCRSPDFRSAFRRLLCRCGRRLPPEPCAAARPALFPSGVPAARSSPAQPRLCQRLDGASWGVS

SMILES | residual activity [1] [%] | residual activity [2] [%] | residual activity [3] [%] | residual activity [4] [%] | residual activity [5] [%] | residual activity [6] [%] | residual activity [7] [%] | residual activity [8] [%] | residual activity [9] [%] | residual activity [10] [%] | residual activity [11] [%] | residual activity [12] [%] | residual activity [13] [%] | residual activity [14] [%] | residual activity [15] [%] | residual activity [16] [%] | residual activity [17] [%] | residual activity [18] [%] | residual activity [19] [%] | residual activity [20] [%] | other results
CCC(=O)N[C@H]1CC[C@@H](C(=O)N(C)c2ccc(-c3nc4ccccc4o3)cc2)C1 [BI 99179] | 74 | 89 | 100 | 91 | 97 | 77 | 94 | 95 | 100 | 93 | 100 | 78 | 96 | 100 | 73 | 84 | 90 | 89 | 100 | 100 | residual activity [21]: 92%; residual activity [22]: 68%; residual activity [23]: 92%; residual activity [24]: 100%; residual activity [25]: 66%; residual activity [26]: 89%; residual activity [27]: 78%; inhibition [28]: 19.5%; inhibition [29]: 6.85%; inhibition [30]: -3.14%; inhibition [31]: -1.4%; inhibition [32]: 32.8%; inhibition [33]: 2.94%; inhibition [34]: 77.3%; inhibition [35]: 10.3%; inhibition [36]: 21.1%; inhibition [37]: 4.58%; inhibition [38]: 34.9%
CCC(=O)N[C@@H]1CC[C@H](C(=O)N(C)c2ccc(-c3nc4ccccc4o3)cc2)C1 [BI 99990] | 94 | 72 | 100 | 100 | 100 | 87 | 88 | 100 | 36 | 88 | 94 | 100 | 100 | 82 | 100 | 76 | 100 | 100 | 100 | 86 | residual activity [21]: 100%; residual activity [22]: 97%; residual activity [23]: 100%; residual activity [24]: 100%; residual activity [25]: 100%; residual activity [26]: 100%; residual activity [27]: 100%; inhibition [28]: 8.28%; inhibition [29]: -8.27%; inhibition [30]: -5.68%; inhibition [31]: -9.11%; inhibition [32]: 20.2%; inhibition [33]: 14.5%; inhibition [34]: 23.3%; inhibition [35]: 14.1%; inhibition [36]: 0.94%; inhibition [37]: 17.9%; inhibition [38]: -2.82%
